Test results reported in patent publication US10759793B2, “2-(pyrazolopyridin-3-yl)pyrimidine derivatives as JAK inhibitors” (ALMIRALL, S.A., priority 2015, dated 2020).

Experiments:
Format in all cases: biochemical
JAK3 = JAK3 (Homo sapiens (Human), UniProt P52333); test: In vitro JAK kinase assay (TR-FRET), JAK3; conditions: catalytic domain aa 795-1124, GST-fusion; ATP 0.6 μM; peptide 140 nM; 30 minutes at room temperature
Procedure: (§1) Compounds were screened for their ability to inhibit JAK1, JAK2 and JAK3 using the assays as indicated below. […] The enzymatic activity was assayed using as substrate a biotinylated peptide, poly (GT)-Biotin (CisBio). […] The degree of phosphorylation was detected by TR-FRET (time-resolved fluorescence energy transfer). […] The enzymatic reactions took place for 30 minutes at room temperature. […] Incubate for 3 h and read on Victor 2V spectrofluorometer (Perkin Elmer) set to read fluorescence resonance energy transfer.

JAK1 = JAK1 (Homo sapiens (Human), UniProt P23458); test: In vitro JAK kinase assay (TR-FRET), JAK1; conditions: catalytic domain aa 850-1154, GST-fusion; ATP 3 μM; peptide 60 nM; 30 minutes at room temperature
Procedure: as §1

JAK2 = JAK2 (Homo sapiens (Human), UniProt O60674); test: In vitro JAK kinase assay (TR-FRET), JAK2; conditions: catalytic domain aa 826-1132, GST-fusion; ATP 0.2 μM; peptide 20 nM; 30 minutes at room temperature
Procedure: as §1

Sequence of JAK2 (O60674 826-1132): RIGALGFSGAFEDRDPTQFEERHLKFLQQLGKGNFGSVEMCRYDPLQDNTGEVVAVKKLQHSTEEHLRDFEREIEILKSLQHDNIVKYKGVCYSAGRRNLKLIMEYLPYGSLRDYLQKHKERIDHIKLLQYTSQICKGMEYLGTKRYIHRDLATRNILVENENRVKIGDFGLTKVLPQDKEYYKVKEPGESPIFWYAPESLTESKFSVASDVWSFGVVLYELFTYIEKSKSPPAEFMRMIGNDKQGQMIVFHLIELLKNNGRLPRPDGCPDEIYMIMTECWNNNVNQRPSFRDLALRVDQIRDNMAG
Sequence of JAK3 (P52333 795-1124): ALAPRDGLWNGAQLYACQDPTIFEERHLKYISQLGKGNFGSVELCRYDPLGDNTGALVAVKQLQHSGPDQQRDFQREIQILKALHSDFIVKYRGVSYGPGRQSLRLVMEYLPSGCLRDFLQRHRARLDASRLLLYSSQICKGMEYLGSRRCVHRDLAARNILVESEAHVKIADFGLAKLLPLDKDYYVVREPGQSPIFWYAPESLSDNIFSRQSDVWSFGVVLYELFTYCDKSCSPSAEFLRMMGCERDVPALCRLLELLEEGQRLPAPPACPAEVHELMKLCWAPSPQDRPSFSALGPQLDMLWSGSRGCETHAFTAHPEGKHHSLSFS
Sequence of JAK1 (P23458 850-1154): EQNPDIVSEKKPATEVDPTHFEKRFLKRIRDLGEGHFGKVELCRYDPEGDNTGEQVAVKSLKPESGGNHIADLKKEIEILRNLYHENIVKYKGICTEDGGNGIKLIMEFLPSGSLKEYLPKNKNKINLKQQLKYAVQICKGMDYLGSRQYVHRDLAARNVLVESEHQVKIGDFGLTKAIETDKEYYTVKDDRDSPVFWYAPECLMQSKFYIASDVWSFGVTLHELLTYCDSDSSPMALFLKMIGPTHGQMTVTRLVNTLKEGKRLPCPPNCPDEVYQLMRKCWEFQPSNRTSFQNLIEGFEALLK

SMILES	IC50 (JAK3) [nM]	IC50 (JAK1) [nM]	IC50 (JAK2) [nM]
O=C(CO)N1CCC[C@@H](Nc2nc(-c3cnn4ccccc34)nc(-c3ccnc(CO)c3)c2F)C1 [Example 37, 2-[(3R)-3-({5-Fluoro-6-[2-(hydroxymethyl)pyridin-4-yl]-2-pyrazolo[1,5-a]pyridin-3-ylpyrimidin-4-yl}amino)piperidin-1-yl]-2-oxoethanol]	7	2	1
CCOC(=O)c1ccc(-c2nc(-c3cnn4ccccc34)nc(N[C@@H]3CCCN(C(=O)CO)C3)c2F)cn1 [Example 38, Ethyl 5-(5-fluoro-6-{[(3R)-1-glycoloylpiperidin-3-yl]amino}-2-pyrazolo[1,5-a]pyridin-3-ylpyrimidin-4-yl)pyridine-2-carboxylate]	6	4	2
O=C(COc1nc(-c2cnn3ccccc23)nc(N[C@@H]2CCCN(C(=O)CO)C2)c1F)OCc1ccccc1 [Example 44, Benzyl[(5-fluoro-6-{[(3R)-1-glycoloylpiperidin-3-yl]amino}-2-pyrazolo[1,5-a]pyridin-3-ylpyrimidin-4-yl)oxy]acetate]	140	970	74
CCOC(=O)c1nc(-c2cnn3ccccc23)nc(N[C@@H]2CCCN(C(=O)CO)C2)c1F [Example 46, Ethyl 5-fluoro-6-{[(3R)-1-glycoloylpiperidin-3-yl]amino}-2-pyrazolo[1,5-a]pyridin-3-ylpyrimidine-4-carboxylate]	4	10	3
N#Cc1nc(-c2cnn3ccccc23)nc(N[C@@H]2CCCN(C(=O)CO)C2)c1F [Example 47, 5-Fluoro-6-{[(3R)-1-glycoloylpiperidin-3-yl]amino}-2-pyrazolo[1,5-a]pyridin-3-ylpyrimidine-4-carbonitrile]	12	10	4
O=C(CO)N1CCC[C@@H](Nc2nc(-c3cnn4ccccc34)nc(OCC(F)(F)F)c2F)C1 [Example 49, 2-((3R)-3-{[5-Fluoro-2-pyrazolo[1,5-a]pyridin-3-yl-6-(2,2,2-trifluoroethoxy)pyrimidin-4-yl]amino}piperidin-1-yl)-2-oxoethanol]	14	35	10
O=C(CO)N1CCC[C@@H](Nc2nc(-c3cnn4ccccc34)nc(OCC(F)F)c2F)C1 [Example 50, 2-((3R)-3-{[6-(2,2-Difluoroethoxy)-5-fluoro-2-pyrazolo[1,5-a]pyridin-3-ylpyrimidin-4-yl]amino}piperidin-1-yl)-2-oxoethanol]	9	15	3
O=C(CO)N1CCC[C@@H](Oc2nc(-c3cnn4ccccc34)nc(N3CCOCC3)c2F)C1 [Example 52, 2-{(3R)-3-[(5-Fluoro-6-morpholin-4-yl-2-pyrazolo[1,5-a]pyridin-3-ylpyrimidin-4-yl)oxy]piperidin-1-yl}-2-oxoethanol]	11	11	1
COc1nc(-c2cnn3ccccc23)nc(N[C@@H]2CCCN(c3cnc(C#N)cn3)C2)c1F [Example 56, 5-{(3R)-3-[(5-fluoro-6-methoxy-2-pyrazolo[1,5-a]pyridin-3-ylpyrimidin-4-yl)amino]piperidin-1-yl}pyrazine-2-carbonitrile]	8	43	7
COC[C@H](C)Oc1nc(-c2cnn3ccccc23)nc(N[C@@H]2CCCN(C(=O)CO)C2)c1F [Example 58, 2-[(3R)-3-({5-Fluoro-6-[(1S)-2-methoxy-1-methylethoxy]-2-pyrazolo[1,5-a]pyridin-3-ylpyrimidin-4-yl}amino)piperidin-1-yl]-2-oxoethanol]	7	66	2
C[C@@H](CO)Oc1nc(-c2cnn3ccccc23)nc(N[C@@H]2CCCN(C(=O)CO)C2)c1F [Example 59, (2S)-2-[(5-Fluoro-6-{[(3R)-1-glycoloylpiperidin-3-yl]amino}-2-pyrazolo[1,5-a]pyridin-3-ylpyrimidin-4-yl)oxy]propan-1-ol]	4	29	3

More lines, in order of falling IC50 (JAK3), values ahead:

IC50 (JAK3) [nM]	IC50 (JAK1) [nM]	IC50 (JAK2) [nM]	SMILES
4	2	0.6	O=C(CO)N1CCC[C@@H](Nc2nc(-c3cnn4ccccc34)nc(-c3cn[nH]c3)c2F)C1 [Example 32, 2-((3R)-3-{[5-Fluoro-2-pyrazolo[1,5-a]pyridin-3-yl-6-(1H-pyrazol-4-yl)pyrimidin-4-yl]amino}piperidin-1-yl)-2-oxoethanol]
4	2	0.2	Cc1cc(-c2nc(-c3cnn4ccccc34)nc(N[C@@H]3CCCN(C(=O)CO)C3)c2F)ccn1 [Example 34, 2-((3R)-3-{[5-Fluoro-6-(2-methylpyridin-4-yl)-2-pyrazolo[1,5-a]pyridin-3-ylpyrimidin-4-yl]amino}piperidin-1-yl)-2-oxoethanol]
3	11	0.8	COCCOc1nc(-c2cnn3ccccc23)nc(N[C@@H]2CCCN(C(=O)CO)C2)c1F [Example 39, 2-((3R)-3-{[5-Fluoro-6-(2-methoxyethoxy)-2-pyrazolo[1,5-a]pyridin-3-ylpyrimidin-4-yl]amino}piperidin-1-yl)-2-oxoethanol]
3	8	1	O=C(CO)N1CCC[C@@H](Nc2nc(-c3cnn4ccccc34)nc(OCCCO)c2F)C1 [Example 41, 3-[(5-Fluoro-6-{[(3R)-1-glycoloylpiperidin-3-yl]amino}-2-pyrazolo[1,5-a]pyridin-3-ylpyrimidin-4-yl)oxy]propan-1-ol]
3	4	1	CCOc1nc(-c2cnn3ccccc23)nc(N[C@@H]2CCCN(C(=O)CO)C2)c1F [Example 45, 2-{(3R)-3-[(6-Ethoxy-5-fluoro-2-pyrazolo[1,5-a]pyridin-3-ylpyrimidin-4-yl)amino]piperidin-1-yl}-2-oxoethanol]
3	36	2	CC(C)Oc1nc(-c2cnn3ccccc23)nc(N[C@@H]2CCCN(C(=O)CO)C2)c1F [Example 51, 2-{(3R)-3-[(5-Fluoro-6-isopropoxy-2-pyrazolo[1,5-a]pyridin-3-ylpyrimidin-4-yl)amino]piperidin-1-yl}-2-oxoethanol]
3	2	0.5	N#CCC(=O)N1CCC[C@@H](Oc2nc(-c3cnn4ccccc34)nc(N3CCOCC3)c2F)C1 [Example 53, 3-{(3R)-3-[(5-fluoro-6-morpholin-4-yl-2-pyrazolo[1,5-a]pyridin-3-ylpyrimidin-4-yl)oxy]piperidin-1-yl}-3-oxopropanenitrile]
2	4	0.6	CCOC(=O)C1CCN(c2nc(-c3cnn4ccccc34)nc(N[C@@H]3CCCN(C(=O)CC#N)C3)c2F)CC1 [Example 30, Ethyl 1-(6-{[(3R)-1-(cyanoacetyl)piperidin-3-yl]amino}-5-fluoro-2-pyrazolo[1,5-a]pyridin-3-ylpyrimidin-4-yl)piperidine-4-carboxylate]
2	1	0.4	N#CCC(=O)N1CCC[C@@H](Nc2nc(-c3cnn4ccccc34)nc(N3CCC(C(=O)O)CC3)c2F)C1 [Example 31, 1-(6-{[(3R)-1-(Cyanoacetyl)piperidin-3-yl]amino}-5-fluoro-2-pyrazolo[1,5-a]pyridin-3-ylpyrimidin-4-yl)piperidine-4-carboxylic acid]
2	6	0.6	CC(C)(O)Cn1cc(-c2nc(-c3cnn4ccccc34)nc(N[C@@H]3CCCN(C(=O)CO)C3)c2F)cn1 [Example 33, 1-[4-(5-Fluoro-6-{[(3R)-1-glycoloylpiperidin-3-yl]amino}-2-pyrazolo[1,5-a]pyridin-3-ylpyrimidin-4-yl)-1H-pyrazol-1-yl]-2-methylpropan-2-ol]
2	2	0.5	Cc1ccc(-c2nc(-c3cnn4ccccc34)nc(N[C@@H]3CCCN(C(=O)CO)C3)c2F)cn1 [Example 36, 2-((3R)-3-{[5-Fluoro-6-(6-methylpyridin-3-yl)-2-pyrazolo[1,5-a]pyridin-3-ylpyrimidin-4-yl]amino}piperidin-1-yl)-2-oxoethanol]
2	4	0.8	O=C(CO)N1CCC[C@@H](Nc2nc(-c3cnn4ccccc34)nc(OCCO)c2F)C1 [Example 40, 2-((3R)-3-{[5-Fluoro-6-(2-hydroxyethoxy)-2-pyrazolo[1,5-a]pyridin-3-ylpyrimidin-4-yl]amino}piperidin-1-yl)-2-oxoethanol]
2	19	2	N#Cc1cnc(N2CCC[C@@H](Nc3nc(-c4cnn5ccccc45)nc(OCCO)c3F)C2)nc1 [Example 57, 2-((3R)-3-{[5-fluoro-6-(2-hydroxyethoxy)-2-pyrazolo[1,5-a]pyridin-3-ylpyrimidin-4-yl]amino}piperidin-1-yl)pyrimidine-5-carbonitrile]
1	13	1	COc1nc(-c2cnn3ccccc23)nc(N[C@@H]2CCCN(C(=O)CO)C2)c1F [Example 42, 2-{(3R)-3-[(5-Fluoro-6-methoxy-2-pyrazolo[1,5-a]pyridin-3-ylpyrimidin-4-yl)amino]piperidin-1-yl}-2-oxoethanol]
1	4	0.7	O=C(CO)N1CCC[C@@H](Nc2nc(-c3cnn4ccccc34)nc(O)c2F)C1 [Example 43, 5-Fluoro-6-{[(3R)-1-glycoloylpiperidin-3-yl]amino}-2-pyrazolo[1,5-a]pyridin-3-ylpyrimidin-4-ol]
